Results on ten molecules are retold here after patent publication US12071408B2, “Multi-targeted tyrosine kinase inhibitors effective in antitumor uses” (Shanghai AB PharmaTech Ltd., priority 2021, dated 2024).

The subject of series [1] is hepatocellular carcinoma cell line (Hep3B 2.1-7). Put plainly: Tumor cell proliferation inhibition (CTG, 72 h). The series is classed as cell-based. The settings on record: Homo sapiens; Hep3B 2.1-7 cells, class; read-out: Hep3B 2.1-7 range of activity (IC50).
Series [2] deals with bladder cancer cell line (RT112/84). Put plainly: Tumor cell proliferation inhibition (CTG, 72 h). The series is classed as cell-based. The settings on record: Homo sapiens.
The subject of series [3] is thyroid cancer cell line (TT). Nature of the series: Tumor cell proliferation inhibition (CTG, 72 h). It is filed as cell-based.
The test system of series [4] is cervical cancer cell line (Hela). Put plainly: Tumor cell proliferation inhibition (CTG, 72 h). It is filed as cell-based. The following applies: Homo sapiens; Hela cells, class; read-out: Hela activity effect range (IC50).
Series [5] deals with leukemia cell line (K562). Put plainly: Tumor cell proliferation inhibition (CTG, 72 h). It is filed as cell-based. The following applies: Homo sapiens; K562 cells, class; read-out: K562 activity effect range (IC50).
Series [6] addresses VEGFR-2 (KDR) (Homo sapiens (Human), UniProt P35968). Put plainly: Kinase inhibition, Mobility-Shift Assay. It is filed as biochemical.
In series [7] the target is FGFR2 (Homo sapiens (Human), UniProt P21802). Put plainly: Kinase inhibition, Mobility-Shift Assay. It is filed as biochemical.
Series [8] concerns the target FGFR4 (Homo sapiens (Human), UniProt P22455). Nature of the series: Kinase inhibition, Mobility-Shift Assay. It is filed as biochemical.
The target of series [9] is EGFR (Homo sapiens (Human), UniProt P00533). Put plainly: Kinase inhibition, Mobility-Shift Assay. The series is classed as biochemical.
Series [10] addresses C-MET (Homo sapiens (Human), UniProt P08581). Nature of the series: Kinase inhibition, Mobility-Shift Assay. It is filed as biochemical.
For series [11], the target named is VEGFR-3 (FLT4) (Homo sapiens (Human), UniProt P35916). Put plainly: Kinase inhibition, Mobility-Shift Assay. It is filed as biochemical.
Series [12] concerns the target FGFR1 (Homo sapiens (Human), UniProt P11362). Nature of the series: Kinase inhibition, Mobility-Shift Assay. It is filed as biochemical. The following applies: read-out: FGFR-1 IC50.
Series [13] deals with FGFR3 (Homo sapiens (Human), UniProt P22607). Nature of the series: Kinase inhibition, Mobility-Shift Assay. It is filed as biochemical. The settings on record: read-out: FGFR-3 IC50. Here is the method: In this experiment, the inhibitory effects of small molecule inhibitors on 17 kinases were examined by using fluorescent microfluidic mobility shift assay (Mobility-Shift Assay).
2. Compounds were configured in 100% DMSO in a concentration gradient and diluted with buffer to 10% DMSO, and added to 384-well plates. Compounds starting at […] are prepared in 100% DMSO to 25 μM and diluted in a gradient of 10 concentrations, then diluted 10-fold in buffer to make an intermediate dilution of the compound containing 10% DMSO and transferred 5 μl to a 384-well plate. 3. The kinase was diluted to optimal concentration with the following buffers: 50 mM HEPES, pH 7.5, 0.00015% Brij-35, 2 mM DTT (final concentration of enzyme reaction: VEGFR-1 (FLT1): 2 nM; VEGFR-2 (KDR): 1.2 nM; VEGFR-3 (FLT4): 1.5 nM; FGFR1: 2 nM); FGFR2: 9 nM; FGFR3: 8 nM; FGFR4: 10 nM; PDGFRα: 3.5 nM; c-MET: 10 nM; RET: 7 nM; EGFR: 6 nM). Transfer 10 μl into a 384-well plate and incubate with the compounds for 10 min. 4. […] Read the conversion rate with Caliper Reader and calculate the conversion rate as suppression, formula Percent inhIcition=(max−conversion)/(max−min)*100. […]

For series [14], the target named is PDGFRα (Homo sapiens (Human), UniProt P16234). Put plainly: Kinase inhibition, Mobility-Shift Assay. It is filed as biochemical.
A short description of series [15]: MTD toxicity test in rats. The following applies: rat, in vivo.
The target in series [16] is hERG potassium channels (Homo sapiens (Human), UniProt Q12809). Nature of the series: hERG in vitro inhibition, whole-cell patch clamp. It is filed as cell-based. The following applies: in vitro hERG current inhibition.
Series [17] concerns the target ABL (Homo sapiens (Human), UniProt P00519). Put plainly: Kinase inhibition, Mobility-Shift Assay. The series is classed as biochemical.
Where [18] appears, read: RT112/84 cells, class, read-out: RT112/84 range of activity (IC50).
Setting [19] is: Homo sapiens, TT cells, class, read-out: TT range of activity (IC50).
Setting [20] is: class, read-out: KDR activity effect range (IC50).
[21] abbreviates: class, read-out: FGFR2 range of activity effects (IC50).
Setting [22] is: class, read-out: FGFR4 range of activity effects (IC50).
Setting [23] is: class, read-out: EGFR range of activity (IC50).
Setting [24] is: class, read-out: C-MET range of activity (IC50).
Setting [25] is: RT112/84 bladder cancer cells, 72 h, read-out: RT112/84 (uM), inhibitory activity IC50.
Where [26] appears, read: TT thyroid cancer cells, 72 h, read-out: TT (uM), inhibitory activity IC50.

SMILES strings stand for the structures. Where two headings read alike, the source gives them in different places. Bounds are passed on as bounds.

Sequence of VEGFR-2 (KDR) (P35968 20-1356): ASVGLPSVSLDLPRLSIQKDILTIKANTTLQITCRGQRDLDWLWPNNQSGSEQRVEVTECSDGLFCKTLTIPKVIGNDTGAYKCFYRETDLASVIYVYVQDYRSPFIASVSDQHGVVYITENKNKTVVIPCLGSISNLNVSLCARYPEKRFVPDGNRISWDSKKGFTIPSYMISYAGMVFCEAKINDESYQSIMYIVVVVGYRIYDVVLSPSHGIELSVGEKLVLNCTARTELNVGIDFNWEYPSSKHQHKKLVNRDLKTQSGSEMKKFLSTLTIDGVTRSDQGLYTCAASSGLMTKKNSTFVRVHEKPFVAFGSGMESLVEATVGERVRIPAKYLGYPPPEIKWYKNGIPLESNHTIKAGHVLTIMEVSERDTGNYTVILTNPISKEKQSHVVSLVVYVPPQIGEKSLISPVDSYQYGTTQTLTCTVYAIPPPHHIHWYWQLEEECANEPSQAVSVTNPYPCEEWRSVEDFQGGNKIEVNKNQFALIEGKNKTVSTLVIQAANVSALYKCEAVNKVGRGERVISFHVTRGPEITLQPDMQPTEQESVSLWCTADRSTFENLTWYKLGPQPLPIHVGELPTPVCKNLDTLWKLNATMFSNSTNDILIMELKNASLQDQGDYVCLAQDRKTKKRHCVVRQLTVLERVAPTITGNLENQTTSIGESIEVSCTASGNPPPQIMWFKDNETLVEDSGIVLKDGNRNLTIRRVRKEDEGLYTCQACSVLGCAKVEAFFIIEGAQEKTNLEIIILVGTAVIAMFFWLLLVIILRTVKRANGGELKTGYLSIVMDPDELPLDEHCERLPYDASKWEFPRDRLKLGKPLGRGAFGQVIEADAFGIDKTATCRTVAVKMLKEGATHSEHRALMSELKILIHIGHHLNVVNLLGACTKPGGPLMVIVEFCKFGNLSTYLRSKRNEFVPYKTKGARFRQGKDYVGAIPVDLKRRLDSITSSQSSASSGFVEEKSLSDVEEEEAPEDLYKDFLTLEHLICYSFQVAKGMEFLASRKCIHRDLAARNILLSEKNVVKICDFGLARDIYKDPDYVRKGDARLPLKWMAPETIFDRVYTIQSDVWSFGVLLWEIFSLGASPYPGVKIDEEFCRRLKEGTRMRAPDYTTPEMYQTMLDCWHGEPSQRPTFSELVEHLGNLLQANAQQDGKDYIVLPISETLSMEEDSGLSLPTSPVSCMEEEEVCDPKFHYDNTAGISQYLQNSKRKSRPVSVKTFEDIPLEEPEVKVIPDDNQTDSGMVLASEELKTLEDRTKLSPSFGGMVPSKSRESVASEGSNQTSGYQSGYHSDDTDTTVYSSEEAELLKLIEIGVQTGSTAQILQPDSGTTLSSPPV
Sequence of FGFR4 (P22455 22-802): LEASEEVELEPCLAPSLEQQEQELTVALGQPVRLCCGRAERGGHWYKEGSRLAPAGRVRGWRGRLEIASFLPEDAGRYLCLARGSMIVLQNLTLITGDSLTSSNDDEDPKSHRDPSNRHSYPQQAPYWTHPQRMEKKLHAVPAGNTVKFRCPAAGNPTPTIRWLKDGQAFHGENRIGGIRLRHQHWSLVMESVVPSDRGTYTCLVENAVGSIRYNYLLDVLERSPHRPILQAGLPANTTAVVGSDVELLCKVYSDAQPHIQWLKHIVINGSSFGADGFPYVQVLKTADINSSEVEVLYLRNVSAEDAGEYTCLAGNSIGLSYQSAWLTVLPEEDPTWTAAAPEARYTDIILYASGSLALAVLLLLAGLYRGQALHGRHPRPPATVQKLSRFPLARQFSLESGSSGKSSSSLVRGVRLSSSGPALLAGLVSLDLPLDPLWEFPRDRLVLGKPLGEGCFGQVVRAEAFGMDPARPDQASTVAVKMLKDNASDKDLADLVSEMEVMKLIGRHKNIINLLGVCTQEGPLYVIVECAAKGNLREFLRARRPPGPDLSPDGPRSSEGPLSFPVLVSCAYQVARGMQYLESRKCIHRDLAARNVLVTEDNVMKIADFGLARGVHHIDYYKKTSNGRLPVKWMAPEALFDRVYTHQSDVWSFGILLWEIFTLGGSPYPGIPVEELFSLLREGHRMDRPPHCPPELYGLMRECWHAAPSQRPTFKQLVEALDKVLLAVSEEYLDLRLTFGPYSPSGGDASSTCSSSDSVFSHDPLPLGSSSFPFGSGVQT
Sequence of EGFR (P00533 25-1210): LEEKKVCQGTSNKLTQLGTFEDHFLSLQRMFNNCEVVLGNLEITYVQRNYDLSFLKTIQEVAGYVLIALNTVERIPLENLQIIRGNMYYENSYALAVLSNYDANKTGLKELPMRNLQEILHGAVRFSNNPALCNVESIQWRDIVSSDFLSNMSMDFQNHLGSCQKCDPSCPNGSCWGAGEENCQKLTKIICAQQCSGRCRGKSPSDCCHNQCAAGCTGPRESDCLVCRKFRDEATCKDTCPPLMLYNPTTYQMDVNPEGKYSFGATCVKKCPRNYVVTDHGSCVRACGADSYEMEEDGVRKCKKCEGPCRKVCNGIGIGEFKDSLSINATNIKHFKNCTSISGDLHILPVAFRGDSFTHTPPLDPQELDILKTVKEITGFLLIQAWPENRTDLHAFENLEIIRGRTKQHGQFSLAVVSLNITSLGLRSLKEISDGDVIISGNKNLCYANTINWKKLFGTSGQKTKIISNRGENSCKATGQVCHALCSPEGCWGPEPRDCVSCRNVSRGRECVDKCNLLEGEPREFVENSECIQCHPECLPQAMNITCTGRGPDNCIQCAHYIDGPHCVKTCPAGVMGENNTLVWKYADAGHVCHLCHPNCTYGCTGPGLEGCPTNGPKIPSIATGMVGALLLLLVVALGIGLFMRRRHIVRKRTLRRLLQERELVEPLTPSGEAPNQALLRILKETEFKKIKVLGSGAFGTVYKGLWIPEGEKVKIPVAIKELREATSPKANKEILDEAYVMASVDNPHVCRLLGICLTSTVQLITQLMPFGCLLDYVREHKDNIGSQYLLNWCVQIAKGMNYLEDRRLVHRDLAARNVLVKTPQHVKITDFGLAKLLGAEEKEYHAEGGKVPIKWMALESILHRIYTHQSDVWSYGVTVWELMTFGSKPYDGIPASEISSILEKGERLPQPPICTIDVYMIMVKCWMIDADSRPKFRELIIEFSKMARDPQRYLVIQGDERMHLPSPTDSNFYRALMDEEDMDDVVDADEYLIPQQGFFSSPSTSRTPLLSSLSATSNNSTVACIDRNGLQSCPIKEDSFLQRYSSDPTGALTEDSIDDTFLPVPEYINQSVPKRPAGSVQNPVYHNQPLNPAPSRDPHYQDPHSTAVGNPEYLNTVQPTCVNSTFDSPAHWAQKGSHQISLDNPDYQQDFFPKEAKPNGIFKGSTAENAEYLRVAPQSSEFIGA
Sequence of C-MET (P08581 25-1390): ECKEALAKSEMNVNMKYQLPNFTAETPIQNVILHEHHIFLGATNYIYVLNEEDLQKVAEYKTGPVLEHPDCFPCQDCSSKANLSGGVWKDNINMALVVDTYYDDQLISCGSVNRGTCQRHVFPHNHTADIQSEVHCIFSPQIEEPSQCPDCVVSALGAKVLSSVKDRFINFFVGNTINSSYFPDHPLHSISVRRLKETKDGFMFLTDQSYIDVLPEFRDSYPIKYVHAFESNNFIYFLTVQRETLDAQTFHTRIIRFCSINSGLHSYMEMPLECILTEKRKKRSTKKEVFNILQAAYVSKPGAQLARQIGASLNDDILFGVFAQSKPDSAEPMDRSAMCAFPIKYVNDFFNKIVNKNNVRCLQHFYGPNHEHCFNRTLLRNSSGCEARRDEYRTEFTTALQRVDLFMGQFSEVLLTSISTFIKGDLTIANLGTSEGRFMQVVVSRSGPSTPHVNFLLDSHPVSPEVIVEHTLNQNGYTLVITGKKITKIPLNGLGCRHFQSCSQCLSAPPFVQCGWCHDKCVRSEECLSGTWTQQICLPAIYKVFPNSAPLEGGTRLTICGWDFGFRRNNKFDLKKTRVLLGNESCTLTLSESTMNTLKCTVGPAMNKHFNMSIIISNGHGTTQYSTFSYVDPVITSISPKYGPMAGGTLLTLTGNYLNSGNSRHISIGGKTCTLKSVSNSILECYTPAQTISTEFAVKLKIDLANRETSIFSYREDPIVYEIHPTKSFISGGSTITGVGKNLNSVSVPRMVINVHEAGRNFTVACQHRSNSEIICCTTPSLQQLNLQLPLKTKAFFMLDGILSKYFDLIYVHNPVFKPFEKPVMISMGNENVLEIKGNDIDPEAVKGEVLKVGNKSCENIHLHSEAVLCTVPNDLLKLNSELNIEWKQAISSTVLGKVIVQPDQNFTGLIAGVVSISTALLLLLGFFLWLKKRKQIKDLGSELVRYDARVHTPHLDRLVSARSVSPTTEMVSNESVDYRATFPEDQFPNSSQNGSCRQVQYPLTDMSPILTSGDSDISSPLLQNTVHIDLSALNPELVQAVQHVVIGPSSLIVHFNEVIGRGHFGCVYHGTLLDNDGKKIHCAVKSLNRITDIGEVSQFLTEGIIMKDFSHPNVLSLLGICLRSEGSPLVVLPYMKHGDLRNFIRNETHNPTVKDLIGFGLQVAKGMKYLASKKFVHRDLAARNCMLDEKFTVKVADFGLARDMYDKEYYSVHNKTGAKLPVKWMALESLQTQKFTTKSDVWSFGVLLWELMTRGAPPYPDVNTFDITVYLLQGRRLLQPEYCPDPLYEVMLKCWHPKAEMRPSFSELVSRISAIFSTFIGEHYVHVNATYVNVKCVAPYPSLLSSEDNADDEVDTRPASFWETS

Regarding `COc1cc2nccc(Oc3c(F)cc(NC(=O)NC4CC4)c(N(C)C)c3F)c2cc1C(N)=O` [III-46], the IC50 in [1] is more than 5000 nM; in [2] (setting [18]), more than 1 µM; in series [3] (setting [19]) it was more than 10 µM; in series [4], more than 10000 nM; in [5], more than 10000 nM; in [6] (setting [20]) it was more than 10 nM. Besides, the IC50 in series [7] (setting [21]), in series [8] (setting [22]), in series [9] (setting [23]) and in series [10] (setting [24]) was more than 100 nM throughout.
In the case of `COc1cc2nccc(Oc3c(F)cc(NC(=O)NC4CC4)c(Cl)c3OCC(F)(F)F)c2cc1C(N)=O` [III-47], the IC50 in series [1] is more than 5000 nM; in series [2] (setting [18]) it was more than 1 µM; in series [3] (setting [19]), more than 10 µM; in series [4], more than 10000 nM; in [5], more than 10000 nM; in series [6] (setting [20]), more than 10 nM. The IC50 in series [7] (setting [21]), in series [8] (setting [22]), in series [9] (setting [23]) and in series [10] (setting [24]) was more than 100 nM throughout.
On to `COc1cc2nccc(Oc3c(F)cc(NC(=O)NC4CC4)c(Cl)c3N(C)C3CC3)c2cc1C(N)=O` [III-48], for which the IC50 in series [1] was more than 5000 nM; in series [2] (setting [18]), more than 1 µM; in series [3] (setting [19]) it was more than 10 µM; in series [4], more than 10000 nM; in series [5] it was more than 10000 nM; in series [6] (setting [20]) it was more than 10 nM. In addition, the IC50 in [7] (setting [21]), in series [8] (setting [22]), in [9] (setting [23]) and in [10] (setting [24]) was more than 100 nM in each case.
With `COc1cc2nccc(Oc3c(F)cc(NC(=O)NC4CC4)c(Cl)c3N(C)C)c2cc1C(N)=O` [III-49], the IC50 in [1] is more than 5000 nM; in series [2] (setting [18]) it was more than 1 µM; in series [3] (setting [19]), more than 10 µM; in series [4], more than 10000 nM; in series [5] it was more than 10000 nM; in series [6] (setting [20]), more than 10 nM. Besides, the IC50 in [7] (setting [21]), in series [8] (setting [22]), in series [9] (setting [23]) and in series [10] (setting [24]) was more than 100 nM throughout.
With `COc1cc2nccc(Oc3c(F)c(F)c(NC(=O)NC4CC4)c(N(C)C)c3F)c2cc1C(N)=O` [III-50], the IC50 in [1] was more than 5000 nM; in series [2] (setting [18]) it was more than 1 µM; in series [3] (setting [19]) it was more than 10 µM; in [4] it was more than 10000 nM; in series [5], more than 10000 nM; in series [6] (setting [20]), more than 10 nM. The IC50 in series [7] (setting [21]), in series [8] (setting [22]), in [9] (setting [23]) and in [10] (setting [24]) was more than 100 nM each time.
In the case of `COc1cc2nccc(Oc3c(F)c(F)c(NC(=O)NC4CC4)c(OC)c3F)c2cc1C(N)=O` [III-51], the IC50 in [1] was more than 5000 nM; in [2] (setting [18]) it was more than 1 µM; in series [3] (setting [19]), more than 10 µM; in series [4], more than 10000 nM; in series [5] it was more than 10000 nM; in series [6] (setting [20]), more than 10 nM. In addition, the IC50 in series [7] (setting [21]), in [8] (setting [22]), in [9] (setting [23]) and in series [10] (setting [24]) was more than 100 nM each time.
On to `COc1cc2nccc(Oc3c(F)c(N(C)C)c(NC(=O)NC4CC4)c(N(C)C)c3F)c2cc1C(N)=O` [III-52], for which the IC50 in series [1] was more than 5000 nM; in series [2] (setting [18]), more than 1 µM; in series [3] (setting [19]), more than 10 µM; in series [4], more than 10000 nM; in series [5], more than 10000 nM; in [6] (setting [20]) it was more than 10 nM. For the same molecule, the IC50 in [7] (setting [21]), in series [8] (setting [22]), in series [9] (setting [23]) and in series [10] (setting [24]) was more than 100 nM each time.
As to `COc1cc2nccc(Oc3ccc(NC(=O)NC4CC4)c(Cl)c3)c2cc1C(N)=O` [Lenvatinib, reference compound], the IC50 in [2] (setting [25]) was 0.29 µM; in [2] (setting [18]) it was 0.2 to 1 µM; in [3] (setting [19]), more than 10 µM; in [3] (setting [26]), more than 10 µM; in [11], 3.2 nM; in series [12], 56 nM. For the same molecule, the IC50 in series [7] (setting [21]) was 30 to 100 nM; in [7] (read-out: FGFR-2 IC50) it was 27 nM; in [13], 59 nM; in series [8] (setting [22]), 30 to 100 nM; in series [8] (read-out: FGFR-4 IC50), 65 nM; in series [14] it was 27 nM. For the same molecule, the IC50 was more than 100 nM in series [10] (setting [24]) and more than 1000 nM in series [10] (read-out: C-MET IC50). The MTD in series [15] was found to be 40 mg/kg.
For the molecule `COc1cc2nccc(Oc3ccc(NC(=O)NC4CC4)c(Cl)c3F)c2cc1C(N)=O` [Ref-2, reference compound], the IC50 in series [16] is 15400 nM; in [2] (setting [25]), 0.42 µM; in [3] (setting [26]), 6.4 µM; in series [6] (read-out: VEGFR-2 (KDR) IC50) it was 8.6 nM; in [8] (read-out: FGFR-4 IC50) it was 39 nM; in series [9] (read-out: EGFR IC50), more than 1000 nM.
On to `CNC(=O)c1cc(Oc2ccc(NC(=O)Nc3ccc(Cl)c(C(F)(F)F)c3)c(F)c2)ccn1` [Regorafenib, reference compound], for which the IC50 was 0.2 to 1 µM in [2] (setting [18]); more than 10 µM in [3] (setting [19]); 62 nM in [13]; more than 100 nM in [8] (setting [22]); more than 500 nM in [8] (read-out: FGFR-4 IC50); more than 100 nM in series [9] (setting [23]). The IC50 is more than 1000 nM in series [9] (read-out: EGFR IC50), more than 100 nM in series [10] (setting [24]), more than 1000 nM in series [10] (read-out: C-MET IC50) and more than 500 nM in series [17].
